Experimental data as given in PubChem BioAssay AID1259411 (Chemical Carcinogenesis Research Information System (CCRIS), 2018).
The source made the active and inactive calls. How the calls were made is not given here.

System: rodent carcinogenicity bioassays, tumor incidence
Test: CCRIS carcinogenicity studies
Settings: Dose: 0, Dose: 0
In short: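 NCI-built, expert-reviewed records of carcinogenicity and related test outcomes (mutagenicity, tumor promotion/inhibition) compiled from published and report sources, historical span 1985-2011, not updated.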

Which carcinogen call (Species: MOUSE, Strain/Sex: B6C3F1/FEMALE, Route: INHALATION, 5, 10 PPM 6 HR/D 5 D/WK FOR 102 WK (STUDY DURATION: 105 WK), 5, 10 PPM 6 HR/D 5 D/WK FOR 102 WK (STUDY DURATION: 105 WK), Tumor Site: Type of Lesion: NOSE (RESPIRATORY EPITHELIUM): ADENOMA) does the source give for C=CCOCC1CO1 (stereo unspecified) here?
Its carcinogen call is “equivocal”.

And the carcinogen call (Species: MOUSE, Strain/Sex: B6C3F1/MALE, Route: INHALATION, 5, 10 PPM 6 HR/D 5 D/WK FOR 102 WK (STUDY DURATION: 105 WK), 5, 10 PPM 6 HR/D 5 D/WK FOR 102 WK (STUDY DURATION: 105 WK), Tumor Site: Type of Lesion: NOSE (RESPIRATORY EPITHELIUM): ADENOMA)?
Its carcinogen call is “active; positive”.

What about the carcinogen call (Species: RAT, Strain/Sex: OSBORNE-MENDEL/FEMALE, Route: INHALATION, 5, 10 PPM 6 HR/D 5 D/WK FOR 103 WK (STUDY DURATION: 106 WK), 5, 10 PPM 6 HR/D 5 D/WK FOR 103 WK (STUDY DURATION: 106 WK)) of the same compound?
Its carcinogen call is “inactive; negative”.

And the carcinogen call (Species: RAT, Strain/Sex: OSBORNE-MENDEL/MALE, Route: INHALATION, 5, 10 PPM 6 HR/D 5 D/WK FOR 103 WK (STUDY DURATION: 106 WK), 5, 10 PPM 6 HR/D 5 D/WK FOR 103 WK (STUDY DURATION: 106 WK), Tumor Site: Type of Lesion: NOSE (RESPIRATORY OR OLFACTORY EPITHELIUM): PAPILLARY ADENOMA, SQUAMOUS CELL CARCINOMA, POORLY DIFFERENTIATED ADENOCARCI)?
Its carcinogen call is “equivocal”.

Which carcinogen call (Species: MOUSE, Strain/Sex: B6C3F1/FEMALE, Route: GAVAGE, 7, 15, 30 MG/KG 3/WK FOR 52-88 WK (STUDY DURATION: 62-104 WK), 7, 15, 30 MG/KG 3/WK FOR 52-88 WK (STUDY DURATION: 62-104 WK), Tumor Site: Type of Lesion: LUNG: ALVEOLAR/BRONCHIOLAR ADENOMA, CARCINOMA, MYOCARDIUM: SARCOMA, OVARIES: TUBULAR ADENOMA, HEMATOPOIETIC SYSTEM (LEUK, Tumor Site: Type of Lesion: LUNG: ALVEOLAR/BRONCHIOLAR ADENOMA, CARCINOMA, MYOCARDIUM: SARCOMA, OVARIES: TUBULAR ADENOMA, HEMATOPOIETIC SYSTEM (LEUK) does the source give for CC(C)CCC[C@@H](C)[C@H]1CC[C@H]2[C@@H]3CC=C4C[C@@H](OC(=O)Cc5ccc(N(CCCl)CCCl)cc5)CC[C@]4(C)[C@H]3CC[C@]12C here?
The carcinogen call was “active; positive”.

What about the carcinogen call (Species: MOUSE, Strain/Sex: B6C3F1/MALE, Route: GAVAGE, 7, 15, 30 MG/KG 3/WK FOR 52-102 WK (STUDY DURATION: 74-104 WK), 7, 15, 30 MG/KG 3/WK FOR 52-102 WK (STUDY DURATION: 74-104 WK), Tumor Site: Type of Lesion: LUNG: ALVEOLAR/BRONCHIOLAR ADENOMA, CARCINOMA, HEMATOPOIETIC SYSTEM (LEUKEMIA), LYMPHATIC SYSTEM: LYMPHOMA, MYOCARDIUM:, Tumor Site: Type of Lesion: LUNG: ALVEOLAR/BRONCHIOLAR ADENOMA, CARCINOMA, HEMATOPOIETIC SYSTEM (LEUKEMIA), LYMPHATIC SYSTEM: LYMPHOMA, MYOCARDIUM:) of the same compound?
Its carcinogen call is “active; positive”.

And the carcinogen call (Species: RAT, Strain/Sex: SPRAGUE-DAWLEY/FEMALE, Route: GAVAGE, 5, 10 MG/KG 3/WK FOR 52 WKS (STUDY DURATION: 84-85 WK), 5, 10 MG/KG 3/WK FOR 52 WKS (STUDY DURATION: 84-85 WK), Tumor Site: Type of Lesion: MAMMARY GLAND: ADENOCARCINOMA, FIBROADENOMA)?
Its carcinogen call is “active; positive”.

And the carcinogen call (Species: RAT, Strain/Sex: SPRAGUE-DAWLEY/MALE, Route: GAVAGE, 5, 10 MG/KG 3/WK FOR 52 WK (STUDY DURATION: 84-85 WK), 5, 10 MG/KG 3/WK FOR 52 WK (STUDY DURATION: 84-85 WK))?
The carcinogen call was “inactive; negative”.

How did the carcinogen call (Species: MOUSE, Strain/Sex: B3C3F1/FEMALE (50), Route: ORAL, 500, 1000, 2000 PPM IN MICROCAPSULES IN THE DIET FOR 2 YR (STUDY DURATION: 2 YR), 500, 1000, 2000 PPM IN MICROCAPSULES IN THE DIET FOR 2 YR (STUDY DURATION: 2 YR), Tumor Site: Type of Lesion: LYMPHATIC SYSTEM: MALIGNANT LYMPHOMA) turn out when CC(C)=CCC/C(C)=C/C=O was run?
The carcinogen call was “equivocal”.

And the carcinogen call (Species: MOUSE, Strain/Sex: B6C3F1/MALE (50), Route: ORAL, 500, 1000, 2000 PPM IN MICROCAPSULES IN THE DIET FOR 2 YR (STUDY DURATION: 2 YR), 500, 1000, 2000 PPM IN MICROCAPSULES IN THE DIET FOR 2 YR (STUDY DURATION: 2 YR))?
Its carcinogen call is “inactive; negative”.

And the carcinogen call (Species: RAT, Strain/Sex: F344/FEMALE, Route: ORAL, 1000, 2000, 4000 PPM IN MICROCAPSULES IN THE DIET FOR 2 YR (STUDY DURATION: 2 YR), 1000, 2000, 4000 PPM IN MICROCAPSULES IN THE DIET FOR 2 YR (STUDY DURATION: 2 YR))?
Its carcinogen call is “inactive; negative”.

And the carcinogen call (Species: RAT, Strain/Sex: F344/MALE, Route: ORAL, 1000, 2000, 4000 PPM IN MICROCAPSULES IN THE DIET FOR 2 YR (STUDY DURATION: 2 YR), 1000, 2000, 4000 PPM IN MICROCAPSULES IN THE DIET FOR 2 YR (STUDY DURATION: 2 YR))?
The carcinogen call was “inactive; negative”.

CCN(CC)CCCC(C)Nc1c2ccc(Cl)cc2nc2ccc(OC)cc12 (stereo unspecified) was tested. Which carcinogen call (Species: Mouse, Strain/Sex: CD-1/Female (23/24)/(24/24)(23/24)(22/23), Route: Intraperitoneal, 10, 50, 150 mg/kg on days 8 and 15 after birth (Study duration: 52 weeks) (Test material solvent: 1% w/v carboxymethy, 10, 50, 150 mg/kg on days 8 and 15 after birth (Study duration: 52 weeks) (Test material solvent: 1% w/v carboxymethy) did it give?
Its carcinogen call is “inactive; negative”.

What about the carcinogen call (Species: Mouse, Strain/Sex: CD-1/Male (32/32)/(23/24)(23/24)(25/25), Route: Intraperitoneal, 10, 50, 150 mg/kg on days 8 and 15 after birth (Study duration: 52 weeks) (Test material solvent: 1% w/v carboxymethy, 10, 50, 150 mg/kg on days 8 and 15 after birth (Study duration: 52 weeks) (Test material solvent: 1% w/v carboxymethy) of the same compound?
The carcinogen call was “inactive; negative”.

What does the source list for O=Nc1ccc(Nc2ccccc2)cc1?
carcinogen call (Species: MOUSE, Strain/Sex: B6C3F1/FEMALE, Route: ORAL, 4254, 9000 PPM IN DIET, TWA, 4254, 9000 PPM IN DIET, TWA): inactive; negative; carcinogen call (Species: MOUSE, Strain/Sex: B6C3F1/MALE, Route: ORAL, 4254, 9000 PPM IN DIET, TWA, 4254, 9000 PPM IN DIET, TWA, Tumor Site: Type of Lesion: LIVER: HEPATOCELLULAR ADENOMA OR CARCINOMA): active; positive; carcinogen call (Species: RAT, Strain/Sex: F344/FEMALE, Route: ORAL, 2500, 5000 PPM IN DIET, 2500, 5000 PPM IN DIET): inactive; negative; carcinogen call (Species: RAT, Strain/Sex: F344/MALE, Route: ORAL, 2500, 5000 PPM IN DIET, 2500, 5000 PPM IN DIET, Tumor Site: Type of Lesion: LIVER: HEPATOCELLULAR CARCINOMA OR NEOPLASTIC NODULE): active; positive

What does the source list for CC1(C)S[C@@H]2[C@H](NC(=O)COc3ccccc3)C(=O)N2[C@H]1C(=O)O?
carcinogen call (Species: MOUSE, Strain/Sex: B6C3F1/FEMALE, Route: GAVAGE, 500, 1000 MG/KG IN CORN OIL 5 D/WK FOR 103-104 WK (STUDY DURATION: 106 WK), 500, 1000 MG/KG IN CORN OIL 5 D/WK FOR 103-104 WK (STUDY DURATION: 106 WK)): inactive; negative; carcinogen call (Species: MOUSE, Strain/Sex: B6C3F1/FEMALE, Route: GAVAGE, 500, 1000 MG/KG IN CORN OIL 5D/WK FOR 104 WK, 500, 1000 MG/KG IN CORN OIL 5D/WK FOR 104 WK): inactive; negative; carcinogen call (Species: MOUSE, Strain/Sex: B6C3F1/MALE, Route: GAVAGE, 500, 1000 MG/KG IN CORN OIL 5 D/WK FOR 103-104 WK (STUDY DURATION: 106 WK), 500, 1000 MG/KG IN CORN OIL 5 D/WK FOR 103-104 WK (STUDY DURATION: 106 WK)): inactive; negative; carcinogen call (Species: MOUSE, Strain/Sex: B6C3F1/MALE, Route: GAVAGE, 500, 1000 MG/KG IN CORN OIL 5D/WK FOR 104 WK, 500, 1000 MG/KG IN CORN OIL 5D/WK FOR 104 WK): inactive; negative; carcinogen call (Species: RAT, Strain/Sex: F344/FEMALE, Route: GAVAGE, 500, 1000 MG/KG IN CORN OIL 5 D/WK FOR 103-104 WK (STUDY DURATION: 106 WK), 500, 1000 MG/KG IN CORN OIL 5 D/WK FOR 103-104 WK (STUDY DURATION: 106 WK)): inactive; negative; carcinogen call (Species: RAT, Strain/Sex: F344/FEMALE, Route: GAVAGE, 500, 1000 MG/KG IN CORN OIL 5D/WK FOR 103 WK (STUDY DURATION: 104 WK), 500, 1000 MG/KG IN CORN OIL 5D/WK FOR 103 WK (STUDY DURATION: 104 WK)): inactive; negative; carcinogen call (Species: RAT, Strain/Sex: F344/MALE, Route: GAVAGE, 500, 1000 MG/KG IN CORN OIL 5 D/WK FOR 103-104 WK (STUDY DURATION: 106 WK), 500, 1000 MG/KG IN CORN OIL 5 D/WK FOR 103-104 WK (STUDY DURATION: 106 WK)): inactive; negative; carcinogen call (Species: RAT, Strain/Sex: F344/MALE, Route: GAVAGE, 500, 1000 MG/KG IN CORN OIL 5D/WK FOR 103 WK (STUDY DURATION: 104 WK), 500, 1000 MG/KG IN CORN OIL 5D/WK FOR 103 WK (STUDY DURATION: 104 WK)): inactive; negative
